# Measurements from article PMC5046085, “Systemic Inhibition of CREB is Well-tolerated in vivo” (Scientific Reports, 2016).
# Experiments:
# c-Myb = tested on: c-Myb; set-up: method as in PMID 15585582, PMID 25740244; details: cited from earlier work
# [1] = In vivo pharmacokinetics, plasma concentration by LC-MS/MS; details: female, mouse, single dose 10 mg/kg IP, C57BL/6 mice, read-out: plasma concentration 24 h after drug administration
# Description: Then the blood was collected at different time points and the plasma drug concentration was measured using tandem mass spectroscopy coupled with liquid chromatography (LC/MS-MS) methods.
# Blood was collected at 0.083, 0.25, 0.5, 1, 2, 4, 8, 24 h post drug administration. Blood was collected from each mouse from the submandibular vein (3 time points/mouse). The blood was collected into the EDTA-K2 tubes, and centrifuged at 4,000× rpm for 10 min at 4 °C. The plasma was removed and stored at −80 °C until further analysis. The quantitative LC-MS/MS analyses were conducted using an Agilent 1200 HPLC system coupled to an API 4000 mass spectrometer equipped with an API electrospray ionization (ESI) source. The mobile phases used are a linear gradient of mobile phase A (10 mM ammonium acetate in H2O) and mobile phase B (10 mM ammonium acetate in 90% MeOH). The column used was Xtimate C18 2.1 × 30 mm (3 μm) with a flow rate of 0.6 mL/min. The mass spectrometer was operated in ESI positive ion mode and detection of the drugs was performed by multiple reaction monitoring (MRM).
# Gal4-MLL(2840–2858) = tested on: T1, Gal4-MLL(2840–2858); assay: Gal4-MLL transcription reporter assay in HEK293T cells; type: cell-based, human; details: pG5B reporter, increasing concentrations, 5–7 h
# T1 construct: human MLL (2840–2858) ([…]); expressed in transfected cells; host or cells: HEK293T
# Description: (§1) In these transcription reporter assays, HEK293T cells were transfected with Gal4-fusions along with a Gal4-responsive luciferase reporter or SRF-responsive luciferase (SRE-Luc) reporter. For Gal4-TEAD4, coactivator YAP1 was also included for transfection to enhance its transcription activity. Then the cells were treated with increasing concentrations of 666-15. […] (Fig. 2D).
# (§2) Figure 2 Selectivity of 666-15 against different transcription factors. […] HEK 293T cells were transfected with Gal4-MLL/pG5B (A) Gal4-c-Myb/pG5B (B) Gal4-TEAD4/YAP1/pG5B (C) or SRE-Luc (D). Then the transfected cells were treated with increasing concentrations of 666-15 for 5–7 h. The luciferase activity was then measured, normalized to the protein content and expressed as relative luciferase unit (RLuc)/μg protein.
# (§3) 666-15 was described before. […]
# (§4) HEK293T cells (ATCC) were routinely cultured in Dulbecco’s modified Eagle medium (DMEM, Life Technologies) supplemented with 10% fetal bovine serum (Hyclone) and non-essential amino acids (Life Technologies). […] The luciferase activity was measured by a tube luminometer (Berthold) using luciferase assay reagent (Promega). The protein concentration of the cell lysates in each well was determined using a Protein Assay Dye Reagent (Biorad). The luciferase activity in each well was normalized to the protein content and expressed as RLuc (relative luciferase unit)/μg protein.
# Gal4-c-Myb(241–325) = target: T2, Gal4-c-Myb(241–325) (Homo sapiens, UniProt P10242); assay: Gal4-c-Myb transcription reporter assay in HEK293T cells; type: cell-based; details: pG5B reporter, increasing concentrations, 5–7 h
# T2 construct: Gal4-c-Myb (241–325) was a generous gift of Dr. Anders Näär; expressed in transfected cells; host or cells: HEK293T
# Description: as §1, §2, §3, §4
# T1 sequence (P04386 with tags, fused parts or gaps): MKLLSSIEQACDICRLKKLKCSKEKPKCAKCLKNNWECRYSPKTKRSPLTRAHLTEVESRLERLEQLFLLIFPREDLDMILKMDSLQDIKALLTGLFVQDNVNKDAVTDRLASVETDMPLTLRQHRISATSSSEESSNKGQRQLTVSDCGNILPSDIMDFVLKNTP
# T2 sequence (P10242 with tags, fused parts or gaps limits assumed): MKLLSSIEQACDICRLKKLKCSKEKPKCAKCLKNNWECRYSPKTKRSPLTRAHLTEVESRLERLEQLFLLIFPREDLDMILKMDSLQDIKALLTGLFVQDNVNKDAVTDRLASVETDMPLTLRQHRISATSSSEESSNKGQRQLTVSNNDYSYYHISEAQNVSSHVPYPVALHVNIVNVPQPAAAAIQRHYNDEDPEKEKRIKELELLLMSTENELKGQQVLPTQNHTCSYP
concentration at 24 h [1] [nM],inhibition of Gal4-MLL-mediated transcription (Gal4-MLL(2840–2858)),inhibition of Gal4-c-Myb-mediated transcription (Gal4-c-Myb(241–325)),Structure (SMILES),effect on c-Myb's activity (c-Myb)
–,–,–,O=C(Nc1ccc(Cl)cc1)c1cc2ccccc2cc1OP(=O)(O)O [naphthol AS-E phosphate],inhibits c-Myb’s activity
50 to 100,no inhibition,no inhibition,NCCCOc1cc2ccccc2cc1C(=O)NCCOc1cc2ccccc2cc1C(=O)Nc1ccc(Cl)cc1O [666-15],–
